The source of these data is patent publication US9085576B2 (AMGEN INC., priority 2013, dated 2015).

The target of experiment [1] is Beta Secretase enzyme (BACE) (Homo sapiens (Human), UniProt P56817). The experiment can be described thus: In vitro enzymatic BACE FRET assay. To be noted: read-out: BACE1 Enzyme assay IC50. Format: biochemical.
Method: In Vitro Enzymatic BACE FRET (Fluorescence Resonance Energy Transfer) Assay (Enzyme Assay Data in the Example Table I)
The assay buffer used in this screen is 0.05 M acetate, pH 4.2, 10% DMSO final, 100 uM genapol (which is a nonionic detergent, below its Critical Micelle Concentration). […] This assay is effectively started by the addition of FRET substrate (50 nM) and the combination is incubated for one hour. The FRET assay is terminated with by addition of Tris buffer, which raises the pH to neutrality, and the fluorescence is determined. The FRET substrate is a peptide with commercially available fluorophore and quencher, on opposite sides of the BACE cleavage site.
Another experiment has as its target Cathepsin D (Cat D) (Homo sapiens (Human), UniProt P07339). The experiment can be described thus: In vitro enzymatic Cathepsin D (Cat D) FRET assay. The experiment is classed as biochemical. The conditions noted are these: read-out: CatD IC50.
In the next experiment the target is BACE (Homo sapiens (Human), UniProt P56817). The experiment can be described thus: In vitro BACE cell-based assay (Aβ40 in conditioned medium, sandwich ELISA).
Chain of BACE (P56817 46-501, species assumed): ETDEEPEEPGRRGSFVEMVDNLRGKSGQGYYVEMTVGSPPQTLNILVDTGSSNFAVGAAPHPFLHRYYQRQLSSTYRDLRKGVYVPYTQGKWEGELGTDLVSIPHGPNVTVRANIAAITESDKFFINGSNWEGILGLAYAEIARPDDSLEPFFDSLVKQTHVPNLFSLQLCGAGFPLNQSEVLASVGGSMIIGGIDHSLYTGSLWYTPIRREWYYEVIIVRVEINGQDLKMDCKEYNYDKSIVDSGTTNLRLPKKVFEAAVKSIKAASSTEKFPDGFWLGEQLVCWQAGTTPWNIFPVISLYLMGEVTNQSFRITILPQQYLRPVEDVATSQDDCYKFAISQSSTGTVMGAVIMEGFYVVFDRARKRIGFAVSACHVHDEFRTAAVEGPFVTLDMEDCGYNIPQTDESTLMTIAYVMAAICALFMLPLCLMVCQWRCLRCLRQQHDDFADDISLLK

Some results are limits rather than exact numbers.

One may read the IC50 as the midpoint of a concentration-inhibition curve.

Chain of Beta Secretase enzyme (BACE) (P56817 46-501): as the sequence (P56817 46-501, species assumed) above
Chain of Cathepsin D (Cat D) (P07339 65-412, species assumed): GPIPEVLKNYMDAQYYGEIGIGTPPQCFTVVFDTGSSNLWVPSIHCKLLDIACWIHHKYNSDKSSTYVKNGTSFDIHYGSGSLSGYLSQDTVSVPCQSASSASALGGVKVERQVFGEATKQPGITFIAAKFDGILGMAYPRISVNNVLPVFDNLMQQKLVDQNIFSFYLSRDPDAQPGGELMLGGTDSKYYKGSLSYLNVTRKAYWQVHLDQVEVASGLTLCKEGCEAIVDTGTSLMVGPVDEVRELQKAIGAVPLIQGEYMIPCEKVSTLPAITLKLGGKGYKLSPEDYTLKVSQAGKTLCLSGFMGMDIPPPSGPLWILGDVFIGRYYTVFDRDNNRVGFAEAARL
Method for Cathepsin D (Cat D): In Vitro Enzymatic Cathepsin D (Cat D) FRET (Fluorescence Resonance Energy Transfer) Assay
Recombinant Cat D was expressed in CHO cells. The assay buffer for CathepsinD is 0.05 M citrate pH 3.5, 10% DMSO final, 5 mM CHAPS. […] The assays are effectively started by the addition of different FRET substrates (20 nM for Cat D) and the combination is incubated for one hour. The FRET assay is terminated with by addition of Tris buffer, which raises the pH to neutrality, and the fluorescence is determined. […] Proteolytic cleavage of the FRET substrate releases quenching of fluorescence (Cat D excitation 500 nm and emission 580 nm).

In the case of `NC1=N[C@@](c2cc(NC(=O)c3csc(C(F)F)n3)ccc2F)(C(F)F)[C@H]2C[C@H]2O1` [Example 149, N-(3-((1R,5S,6R)-3-amino-5-(difluoromethyl)-2-oxa-4-azabicyclo[4.1.0]hept-3-en-5-yl)-4-fluorophenyl)-2-(difluoromethyl)thiazole-4-carboxamide], the IC50 was 0.195 µM in experiment [1], 1700 µM at Cathepsin D (Cat D) and 0.152 µM against BACE.
Taken in the same sequence, the figures for `NC1=N[C@@](c2cc(NC(=O)c3coc(C(F)F)n3)ccc2F)(C(F)F)[C@H]2C[C@H]2O1` [Example 150, N-(3-((1R,5S,6R)-3-amino-5-(difluoromethyl)-2-oxa-4-azabicyclo[4.1.0]hept-3-en-5-yl)-4-fluorophenyl)-2-(difluoromethyl)oxazole-4-carboxamide 2,2,2-trifluoroacetate] were 0.0322 µM, 238 µM and 0.0182 µM.
Taken in the same sequence, the figures for `NC1=N[C@@](c2cc(NC(=O)c3coc(C#CC4CC4)n3)ccc2F)(C(F)F)[C@H]2C[C@H]2O1` [Example 151, N-(3-((1R,5S,6R)-3-amino-5-(difluoromethyl)-2-oxa-4-azabicyclo[4.1.0]hept-3-en-5-yl)-4-fluorophenyl)-2-(cyclopropylethynyl) oxazole-4-carboxamide] were 24.8 µM, 302 µM and 1.07 µM.
On to `Cn1nc(C(F)F)cc1C(=O)Nc1ccc(F)c([C@@]2(C(F)F)N=C(N)O[C@@H]3C[C@@H]32)c1` [Example 154, N-(3-((1R,5S,6R)-3-amino-5-(difluoromethyl)-2-oxa-4-azabicyclo[4.1.0]hept-3-en-5-yl)-4-fluorophenyl)-3-(difluoromethyl)-1-methyl-1H-pyrazole-5-carboxamide], for which the half-maximal inhibitory concentration (IC50) is 0.24 µM in experiment [1], 515 µM at Cathepsin D (Cat D) and 0.109 µM at BACE.
With `COc1cnc(C(=O)Nc2cc(F)c(Cl)c([C@]3(CF)N=C(N)O[C@H]4C[C@H]43)c2)cn1` [Example 155], the IC50 is > 40 µM in experiment [1], 647 µM at Cathepsin D (Cat D) and > 15.6 µM at BACE.
`COc1cnc(C(=O)Nc2cc(F)c(Cl)c([C@@]3(CF)N=C(N)O[C@@H]4C[C@@H]43)c2)cn1` [Example 156, N-(3-((1R,5S,6R)-3-amino-5-(fluoromethyl)-2-oxa-4-azabicyclo[4.1.0]hept-3-en-5-yl)-4-chloro-5-fluorophenyl)-5-methoxypyrazine-2-carboxamide]: the IC50 in experiment [1] worked out at 0.055 µM; on Cathepsin D (Cat D) it was 897 µM; against BACE, 0.0199 µM.
Taken in the same sequence, the figures for `Cc1cc(OC(F)F)cnc1C(=O)Nc1cc(F)c(Cl)c([C@]2(CF)N=C(N)O[C@H]3C[C@H]32)c1` [Example 157, N-(3-((1S,5R,6S)-3-amino-5-(fluoromethyl)-2-oxa-4-azabicyclo[4.1.0]hept-3-en-5-yl)-4-chloro-5-fluorophenyl)-5-(difluoromethoxy)-3-methylpicolinamide] were 28.3 µM, 396 µM and > 15.6 µM.
With `Cc1cc(OC(F)F)cnc1C(=O)Nc1cc(F)c(Cl)c([C@@]2(CF)N=C(N)O[C@@H]3C[C@@H]32)c1` [Example 158, N-(3-((1R,5S,6R)-3-amino-5-(fluoromethyl)-2-oxa-4-azabicyclo[4.1.0]hept-3-en-5-yl)-4-chloro-5-fluorophenyl)-5-(difluoromethoxy)-3-methylpicolinamide], the concentration for half-maximal inhibition (IC50) in experiment [1] amounted to 0.0403 µM; at Cathepsin D (Cat D) it was 230 µM; against BACE it was 0.0383 µM.
Taken in the same sequence, the figures for `NC1=N[C@@](c2cc(NC(=O)c3cnc(OCC(F)(F)F)cn3)ccc2F)(C(F)F)[C@H]2C[C@H]2O1` [Example 160, N-(3-((1R,5S,6R)-3-amino-5-(difluoromethyl)-2-oxa-4-azabicyclo[4.1.0]hept-3-en-5-yl)-4-fluorophenyl)-5-(2,2,2-trifluoroethoxy)pyrazine-2-carboxamide] were 0.0291 µM, 2000 µM and 0.0808 µM.
Taken in the same sequence, the figures for `CC(C)n1cc(Cl)c(C(=O)Nc2ccc(F)c([C@@]3(C(F)F)N=C(N)O[C@@H]4C[C@@H]43)c2)n1` [Example 161, N-(3-((1R,5S,6R)-3-amino-5-(difluoromethyl)-2-oxa-4-azabicyclo[4.1.0]hept-3-en-5-yl)-4-fluorophenyl)-4-chloro-1-isopropyl-1H-pyrazole-3-carboxamide] were > 40 µM, 295 µM and > 15.6 µM.
For the molecule `NC1=N[C@](CF)(c2cc(NC(=O)c3nn(C(F)F)cc3Cl)ccc2F)[C@H]2C[C@H]2O1` [Example 164, N-(3-((1R,5S,6R)-3-amino-5-(fluoromethyl)-2-oxa-4-azabicyclo[4.1.0]hept-3-en-5-yl)-4-fluorophenyl)-4-chloro-1-(difluoromethyl)-1H-pyrazole-3-carboxamide], the half-inhibitory concentration (IC50) in experiment [1] was determined as 0.0232 µM; at Cathepsin D (Cat D), 950 µM; on BACE, 0.0109 µM.
Taken in the same sequence, the figures for `NC1=N[C@@](c2cc(NC(=O)c3cnc(OCc4nccs4)cn3)ccc2F)(C(F)F)[C@H]2C[C@H]2O1` [Example 165, N-(3-((1R,5S,6R)-3-amino-5-(difluoromethyl)-2-oxa-4-azabicyclo[4.1.0]hept-3-en-5-yl)-4-fluorophenyl)-5-(thiazol-2-ylmethoxy)pyrazine-2-carboxamide] were 0.0192 µM, 383 µM and 0.0606 µM.
Taken in the same sequence, the figures for `Cc1nc(C(=O)Nc2ccc(F)c([C@@]3(C(F)F)N=C(N)O[C@@H]4C[C@@H]43)c2)co1` [Example 166, N-(3-((1R,5S,6R)-3-amino-5-(difluoromethyl)-2-oxa-4-azabicyclo[4.1.0]hept-3-en-5-yl)-4-fluorophenyl)-2-methyloxazole-4-carboxamide] were 0.0613 µM, 373 µM and 0.103 µM.
For the molecule `NC1=N[C@@](c2cc(NC(=O)c3cnc(OCc4cscn4)cn3)ccc2F)(C(F)F)[C@H]2C[C@H]2O1` [Example 169, N-(3-((1R,5S,6R)-3-amino-5-(difluoromethyl)-2-oxa-4-azabicyclo[4.1.0]hept-3-en-5-yl)-4-fluorophenyl)-5-(thiazol-4-ylmethoxy)pyrazine-2-carboxamide], the half-inhibitory concentration (IC50) in experiment [1] was 0.0366 µM; at Cathepsin D (Cat D), 582 µM; on BACE, 0.0418 µM.
Taken in the same sequence, the figures for `NC1=N[C@@](c2cc(NC(=O)c3cnc(OCc4cncs4)cn3)ccc2F)(C(F)F)[C@H]2C[C@H]2O1` [Example 170, N-(3-((1R,5S,6R)-3-amino-5-(difluoromethyl)-2-oxa-4-azabicyclo[4.1.0]hept-3-en-5-yl)-4-fluorophenyl)-5-(thiazol-5-ylmethoxy)pyrazine-2-carboxamide] were 0.0867 µM, 445 µM and 0.56 µM.
Taken in the same sequence, the figures for `NC1=N[C@@](c2cc(NC(=O)c3cnc(OCc4cnco4)cn3)ccc2F)(C(F)F)[C@H]2C[C@H]2O1` [Example 171, N-(3-((1R,5S,6R)-3-amino-5-(difluoromethyl)-2-oxa-4-azabicyclo[4.1.0]hept-3-en-5-yl)-4-fluorophenyl)-5-(oxazol-5-ylmethoxy)pyrazine-2-carboxamide] were 0.0811 µM, 846 µM and 0.323 µM.
Taken in the same sequence, the figures for `NC1=N[C@@](c2cc(NC(=O)c3ccc(OCc4nccs4)cn3)ccc2F)(C(F)F)[C@H]2C[C@H]2O1` [Example 172, N-(3-((1R,5S,6R)-3-amino-5-(difluoromethyl)-2-oxa-4-azabicyclo[4.1.0]hept-3-en-5-yl)-4-fluorophenyl)-5-(thiazol-2-ylmethoxy) picolinamide] were 0.0824 µM, 360 µM and 0.446 µM.
Regarding `NC1=N[C@@](c2cc(NC(=O)c3ccc(OCc4ncco4)cn3)ccc2F)(C(F)F)[C@H]2C[C@H]2O1` [Example 173, N-(3-((1R,5S,6R)-3-amino-5-(difluoromethyl)-2-oxa-4-azabicyclo[4.1.0]hept-3-en-5-yl)-4-fluorophenyl)-5-(oxazol-2-ylmethoxy) picolinamide], the half-maximal inhibitory concentration (IC50) in experiment [1] was determined as 0.0366 µM; at Cathepsin D (Cat D) it was 1010 µM; on BACE it was 0.0789 µM.
With `Cc1csc(C(=O)Nc2ccc(F)c([C@@]3(C(F)F)N=C(N)O[C@@H]4C[C@@H]43)c2)c1` [Example 176, N-(3-((1R,5S,6R)-3-amino-5-(difluoromethyl)-2-oxa-4-azabicyclo[4.1.0]hept-3-en-5-yl)-4-fluorophenyl)-4-methylthiophene-2-carboxamide], the concentration for half-maximal inhibition (IC50) in experiment [1] was found to be 0.191 µM; at Cathepsin D (Cat D), 835 µM; against BACE, 0.156 µM.
Taken in the same sequence, the figures for `NC1=N[C@@](c2cc(NC(=O)c3cc(Cl)cs3)ccc2F)(C(F)F)[C@H]2C[C@H]2O1` [Example 177, N-(3-((1R,5S,6R)-3-amino-5-(difluoromethyl)-2-oxa-4-azabicyclo[4.1.0]hept-3-en-5-yl)-4-fluorophenyl)-4-chlorothiophene-2-carboxamide] were 0.185 µM, 762 µM and 0.373 µM.
Taken in the same sequence, the figures for `N#Cc1csc(C(=O)Nc2ccc(F)c([C@@]3(C(F)F)N=C(N)O[C@@H]4C[C@@H]43)c2)c1` [Example 178, N-(3-((1R,5S,6R)-3-amino-5-(difluoromethyl)-2-oxa-4-azabicyclo[4.1.0]hept-3-en-5-yl)-4-fluorophenyl)-4-cyanothiophene-2-carboxamide] were 1.07 µM, 534 µM and 1.56 µM.
Taken in the same sequence, the figures for `NC1=N[C@@](c2cc(NC(=O)c3ccc(Cl)s3)ccc2F)(C(F)F)[C@H]2C[C@H]2O1` [Example 179, N-(3-((1R,5S,6R)-3-amino-5-(difluoromethyl)-2-oxa-4-azabicyclo[4.1.0]hept-3-en-5-yl)-4-fluorophenyl)-5-chlorothiophene-2-carboxamide] were 0.871 µM, 474 µM and 0.661 µM.
